This is an account of results in paper PMC4488731 (Viruses, 2015).

In the experiment the target is T1, EV-A71 2A protease (r2A protease) (Enterovirus A71, UniProt B9VUU3).
T1 sequence (B9VUU3 863-1012 limits assumed): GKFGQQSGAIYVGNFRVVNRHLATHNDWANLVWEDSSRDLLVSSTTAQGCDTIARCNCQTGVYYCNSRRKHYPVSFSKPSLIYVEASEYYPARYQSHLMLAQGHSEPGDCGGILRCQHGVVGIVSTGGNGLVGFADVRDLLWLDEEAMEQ
It is filed as biochemical. Particulars: 37 °C, 2 h, 5 µg/mL r2A, 10 µg/mL HRP substrate.

With `CCOC(=O)C1=C(Nc2cc(C)cc(C)c2)OCC1=O` [CW-33, Ethyl 2-(3′,5′-dimethylanilino)-4-oxo-4,5-dihydrofuran-3-carboxylate], it took 53.1 µM to reach half-maximal inhibition (IC50).
